In general, IC50 refers to the midpoint of a concentration-inhibition curve. By EC50 is commonly meant the concentration at which the effect is half-maximal. In general, CC50 refers to the concentration at which the toxic effect on the cells reaches its halfway point.

For series [1], the target named is T1, Human immunodeficiency virus type 1 reverse transcriptase (Human immunodeficiency virus 1, UniProt Q72547). Description: Inhibition of HIV1 reverse transcriptase RNase H expressed in Escherichia coli JM109 using RNA/DNA duplex substrate HTS-1.
Series [2] has as its target T1, Human immunodeficiency virus type 1 reverse transcriptase. Put plainly: Inhibition of HIV1 reverse transcriptase polymerase using deoxynucleotide triphosphates and 18 nucleotide DNA primer annealed to 100 nucleotide DNA template after 30 mins.
The target of series [3] is Human immunodeficiency virus type 1 integrase (Human immunodeficiency virus 1, UniProt Q7ZJM1). Put plainly: Inhibition of HIV1 integrase strand transfer activity using 5'-biotinylated oligonucleotide as substrate preincubated for 10 mins followed by substrate addition and measured after 30 mins.
For series [4], the system named is Human immunodeficiency virus 1. Put plainly: Antiviral activity against HIV-1 infected in human P4R5 cells assessed as reduction in viral replication preincubated for 24 hrs followed by viral infection and measured after 48 hrs by MAGI assay. The class given is functional, organism-based.
The nature of series [5]: Cytotoxicity against human P4R5 cells after 72 hrs by XTT assay. The class given is cell-based. For orientation: Tetrazolium assays rely on reduction of a dye to a coloured formazan, in cell work by metabolically active cells.

Where only a bound is given, the exact number is not on record here.

Chain of Human immunodeficiency virus type 1 integrase (Q7ZJM1 whole entry): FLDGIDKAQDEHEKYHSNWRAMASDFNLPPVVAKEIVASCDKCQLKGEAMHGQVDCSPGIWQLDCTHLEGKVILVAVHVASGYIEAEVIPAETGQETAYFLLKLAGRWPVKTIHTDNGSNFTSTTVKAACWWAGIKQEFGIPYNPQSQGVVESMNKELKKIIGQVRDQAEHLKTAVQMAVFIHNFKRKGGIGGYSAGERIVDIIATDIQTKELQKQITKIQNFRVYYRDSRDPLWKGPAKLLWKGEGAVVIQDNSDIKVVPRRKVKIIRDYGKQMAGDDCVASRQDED

For the molecule `O=C(c1ccc(-c2ccc(F)cc2)cc1)c1cc(=O)n(O)c(=O)[nH]1`, the figures for the IC50 in series [1], in series [2] and in series [3] were 0.027 µM, more than 10 µM and 6.7 µM, respectively. The EC50 in series [4] was found to be 9 µM. The CC50 in series [5] was more than 100 µM.
The like results for `Cc1cc(C)cc(-c2ccc(C(=O)c3cc(=O)n(O)c(=O)[nH]3)cc2)c1` were, in that order, 0.063 µM, more than 10 µM, 3.5 µM, more than 20 µM and more than 100 µM.
Taken in the same sequence, the figures for `COC(=O)c1ccc(-c2ccc(C(=O)c3cc(=O)n(O)c(=O)[nH]3)cc2)cc1` were 0.015 µM, more than 10 µM, 6.7 µM, more than 20 µM and more than 100 µM.
The like results for `O=C(c1cccc(-c2ccccc2)c1)c1cc(=O)n(O)c(=O)[nH]1` were, in that order, 0.017 µM, more than 10 µM, 7.1 µM, more than 20 µM and more than 100 µM.
For `O=C(c1ccc(-c2ccccc2)cc1)c1cc(=O)n(O)c(=O)[nH]1`, the values for the IC50 in series [1], in series [2] and in series [3] were 0.022 µM, more than 10 µM and 2.5 µM, respectively. Also, the EC50 in series [4] was found to be 15 µM. In series [5], this molecule came in with a CC50 of more than 100 µM.
On to `Cc1ccc(-c2ccc(C(=O)c3cc(=O)n(O)c(=O)[nH]3)cc2)cc1`, for which the IC50 in series [1] is 0.021 µM; in series [2], more than 10 µM; in series [3], 10 µM. Moreover, the EC50 in series [4] was determined as 4.7 µM. The molecule further showed a cytotoxic concentration (CC50) in series [5] of 22 µM.
Consider `COC(=O)c1ccc(C(=O)c2cc(=O)n(O)c(=O)[nH]2)cc1`, for which the IC50 in series [1] was 0.031 µM; in series [2], more than 10 µM; in series [3], 13 µM. The EC50 in series [4] is more than 20 µM. In series [5], this molecule came in with a half-maximal cytotoxic concentration (CC50) of more than 100 µM.
As for `CCOCn1c(C(C#N)c2ccc(-c3ccccc3)cc2)cc(=O)n(O)c1=O` (stereo not given), the IC50 in series [1] is 0.76 µM; in series [2], more than 10 µM; in series [3], more than 100 µM. Besides, the concentration giving a half-maximal response (EC50) in series [4] was more than 20 µM. In addition, the CC50 in series [5] is more than 100 µM.
Consider `Cc1cc(C)cc(C(=O)c2cc(=O)n(O)c(=O)[nH]2)c1`, for which the IC50 in series [1] is 0.09 µM; in series [2], more than 10 µM; in series [3], 4.9 µM. Also, in series [4], the EC50 was found to be 9.5 µM. The midpoint of cytotoxicity in series [5], the CC50, lay at 21 µM.
As for `O=C(c1ccc(F)cc1)c1cc(=O)n(O)c(=O)[nH]1`, the IC50 in series [1] is 0.085 µM; in series [2], more than 10 µM; in series [3], 4 µM. In addition, the EC50 in series [4] was more than 20 µM. This molecule also registered a CC50 in series [5] of more than 100 µM.
Consider `CCOCn1c(C(C#N)c2cc(C)cc(C)c2)cc(=O)n(O)c1=O` (stereo not given), for which the IC50 was 3.7 µM in series [1], more than 10 µM in series [2] and more than 100 µM in series [3]. For the same molecule, the EC50 in series [4] is more than 20 µM. The 50% cytotoxic concentration (CC50) in series [5] was more than 100 µM.
Regarding `Cc1cc(-c2ccc(C(=O)c3cc(=O)n(O)c(=O)[nH]3)cc2)ccc1F`, the IC50 amounted to 0.019 µM in series [1], 8.3 µM in series [2] and 4.3 µM in series [3]. Besides, in series [4], the EC50 is more than 20 µM. For the same molecule, the CC50 in series [5] was more than 100 µM.
Regarding `N#Cc1ccc(-c2ccc(C(=O)c3cc(=O)n(O)c(=O)[nH]3)cc2)cc1`, the 50% inhibitory concentration (IC50) in series [1] is 0.024 µM; in series [2], 7.7 µM; in series [3] it was 0.53 µM. Besides, in series [4], the EC50 was more than 20 µM. The half-maximal cytotoxic concentration (CC50) in series [5] is more than 100 µM.
On to `O=C(c1ccc(C(F)(F)F)cc1)c1cc(=O)n(O)c(=O)[nH]1`, for which the half-inhibitory concentration (IC50) in series [1] is 0.081 µM; in series [2] it was more than 10 µM; in series [3] it was 2.1 µM. For the same molecule, the EC50 in series [4] was more than 20 µM. This molecule also yielded a cytotoxic concentration (CC50) in series [5] of more than 100 µM.
Taken in the same sequence, the figures for `CCOCn1c(C(=O)c2cccc(-c3ccccc3)c2)cc(=O)n(O)c1=O` were 1.1 µM, more than 10 µM, more than 100 µM, 12 µM and 73 µM.
Take `O=C(c1ccc(-c2ccc(Cl)c(F)c2)cc1)c1cc(=O)n(O)c(=O)[nH]1`: the IC50 in series [1] is 0.023 µM; in series [2], more than 10 µM; in series [3], 0.37 µM. Besides, the EC50 in series [4] was found to be 18 µM. The molecule further showed a CC50 in series [5] of more than 100 µM.
The like results for `O=C(c1ccc(-c2ccc(C(F)(F)F)cc2)cc1)c1cc(=O)n(O)c(=O)[nH]1` were, in that order, 0.026 µM, more than 10 µM, more than 100 µM, 5.3 µM and 17 µM.
Regarding `COc1ccc(-c2ccc(C(=O)c3cc(=O)n(O)c(=O)[nH]3)cc2)cc1`, the IC50 was 0.53 µM in series [1], 5.9 µM in series [2] and more than 100 µM in series [3]. Also, in series [4], the EC50 is more than 20 µM. The CC50 in series [5] is more than 100 µM.
Regarding `COc1ccc(-c2ccc(C(=O)c3cc(=O)n(O)c(=O)[nH]3)cc2)cc1OC`, the IC50 amounted to 0.074 µM in series [1], 9.6 µM in series [2] and 0.33 µM in series [3]. Moreover, the EC50 in series [4] was 6.7 µM. For the same molecule, the midpoint of cytotoxicity in series [5], the CC50, lay at 8.4 µM.
With `CCOCn1c(C(=O)c2ccc(-c3ccccc3)cc2)cc(=O)n(O)c1=O`, the figures for the concentration for half-maximal inhibition (IC50) in series [1], in series [2] and in series [3] were 0.42 µM, more than 10 µM and more than 100 µM, respectively. In series [4], the concentration for a half-maximal effect (EC50) is more than 20 µM. For the same molecule, in series [5], the CC50 was more than 100 µM.
As to `Cc1ccc(C(=O)c2cc(=O)n(O)c(=O)[nH]2)cc1`, the concentration for half-maximal inhibition (IC50) is 0.093 µM in series [1], more than 10 µM in series [2] and 7.2 µM in series [3]. Moreover, the concentration for a half-maximal effect (EC50) in series [4] was more than 20 µM. For the same molecule, the CC50 in series [5] came to 48 µM.

The values above are taken from ChEMBL document CHEMBL4400534, “Pharmacophore-based design of novel 3-hydroxypyrimidine-2,4-dione subtypes as inhibitors of HIV reverse transcriptase-associated RNase H: Tolerance of a nonflexible linker” (Eur J Med Chem, 2019).
